Results: patent publication US20240368115A1, “REGULATOR CONTAINING TRICYCLIC DERIVATIVE, PREPARATION METHOD THEREFOR AND APPLICATION THEREOF” (SHUJING BIOPHARMA CO., LTD, priority 2021, published 2024)
Where two headings read alike, the source gives them in different places.

What was measured:
D2S receptor = biological target: T1, D2S receptor (Homo sapiens, UniProt P14416); test: D2S receptor cAMP agonist test; assay type: cell-based; conditions: HEK293 cell strain stably expressing D2S receptor; for EC50: cAMP, forskolin 5×10^−7 M; for D2S Max Act %: positive control dopamine 1×10^−7 M
T1 construct: expressed in transfected cells
T1 sequence (P14416 1-414 isoform P14416-2): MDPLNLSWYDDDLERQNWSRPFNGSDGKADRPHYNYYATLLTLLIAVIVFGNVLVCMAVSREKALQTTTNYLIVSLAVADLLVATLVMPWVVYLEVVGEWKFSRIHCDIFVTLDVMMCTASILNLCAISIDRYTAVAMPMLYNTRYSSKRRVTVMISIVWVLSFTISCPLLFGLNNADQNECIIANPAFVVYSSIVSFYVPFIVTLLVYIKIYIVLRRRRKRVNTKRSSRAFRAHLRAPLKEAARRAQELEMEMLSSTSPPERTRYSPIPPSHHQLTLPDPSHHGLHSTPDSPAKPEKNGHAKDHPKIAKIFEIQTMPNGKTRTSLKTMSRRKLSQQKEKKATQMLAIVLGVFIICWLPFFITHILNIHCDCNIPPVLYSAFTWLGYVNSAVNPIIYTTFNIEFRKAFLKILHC
Excerpt: (§1) cAMP detection kit was purchased from Cisbio; an HEK293 cell strain stably expressing D2S receptor was constructed by Shanghai Shujing Biopharma Co., Ltd.; dopamine, forskolin, and IBMX were purchased from Sigma; ProxiPlate-384 well plates were purchased from PerkinElmer; HBSS was purchased from Thermo Fisher Scientific.
(§2) • (1) The cultured cells were digested with trypsin, and the cell suspension was washed with HBSS buffer after the digestion was terminated. The medium was removed by centrifugation at 200×g. The pellet was resuspended in an appropriate amount of experimental buffer, and 20 μL of cell suspension was counted using a cell counter and diluted to 0.6×10^6 cells/mL. • (2) 5 μL of cell suspension was added to a ProxiPlate-384 well plate (3×10^3 cells/well). • (3) Test compounds were serially diluted in an experimental buffer, and 5 μL of the mixed solution was transferred to the reaction plate with Bravo.

5-HT1A receptor = biological target: T2, 5-HT1A receptor (Homo sapiens, UniProt P08908); test: 5-HT1A receptor cAMP agonist test; assay type: cell-based; conditions: HEK293 cell strain stably expressing 5-HT1A receptor; for EC50: cAMP, forskolin 2.5×10^−7 M; for 5-HT1A Max Act %: positive control serotonin 10^−6 M
T2 construct: expressed in transfected cells
T2 sequence (P08908 1-422): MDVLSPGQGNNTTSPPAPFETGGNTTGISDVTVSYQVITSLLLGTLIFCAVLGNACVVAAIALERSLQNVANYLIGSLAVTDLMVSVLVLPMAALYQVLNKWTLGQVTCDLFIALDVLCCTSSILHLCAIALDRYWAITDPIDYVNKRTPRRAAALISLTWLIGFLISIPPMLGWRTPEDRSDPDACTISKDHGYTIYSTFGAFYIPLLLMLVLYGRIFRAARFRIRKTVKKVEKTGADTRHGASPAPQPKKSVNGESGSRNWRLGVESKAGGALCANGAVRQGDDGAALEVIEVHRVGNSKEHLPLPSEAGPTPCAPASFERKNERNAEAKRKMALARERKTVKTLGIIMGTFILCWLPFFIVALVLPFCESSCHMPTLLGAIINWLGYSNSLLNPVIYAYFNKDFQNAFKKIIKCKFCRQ
Excerpt: as §1, with “• cAMP” for “cAMP”, “5-HT1A” for “D2S”, “serotonin,” for “dopamine,”
as §2, with “0.4×10^6” for “0.6×10^6”, “(2×10^3” for “(3×10^3”

5-HT2A receptor = 5-HT2A receptor (Homo sapiens, UniProt P28223); test: Calcium flux test for 5-HT2A receptor; assay type: cell-based; conditions: CHO cell strain stably expressing 5-HT2A receptor; for IC50: calcium flux, antagonism of serotonin; for 5-HT2A Max Inh %: positive control ketanserin 10^−7 M
Sequence of 5-HT2A receptor (P28223 whole entry): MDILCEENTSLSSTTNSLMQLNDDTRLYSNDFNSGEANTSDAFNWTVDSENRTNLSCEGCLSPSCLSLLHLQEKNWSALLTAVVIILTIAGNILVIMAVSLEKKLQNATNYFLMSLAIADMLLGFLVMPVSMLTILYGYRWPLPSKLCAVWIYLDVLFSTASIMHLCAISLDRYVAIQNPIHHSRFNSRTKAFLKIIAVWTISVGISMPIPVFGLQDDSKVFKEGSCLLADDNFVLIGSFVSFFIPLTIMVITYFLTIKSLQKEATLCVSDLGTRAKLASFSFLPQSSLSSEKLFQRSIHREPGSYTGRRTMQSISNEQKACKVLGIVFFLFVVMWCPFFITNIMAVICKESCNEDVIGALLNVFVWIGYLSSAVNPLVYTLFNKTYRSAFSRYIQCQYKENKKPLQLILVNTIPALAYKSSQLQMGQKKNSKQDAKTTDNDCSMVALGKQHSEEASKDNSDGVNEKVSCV
Description: • Fluo-4 calcium flux detection kit was purchased from Invitrogen; a CHO cell strain stably expressing 5-HT2A receptor was purchased from PerkinElmer; serotonin was purchased from Sigma; ketanserin was purchased from Targetmol; polylysine-coated 384-well plates and 384-well compound plates were purchased from Greiner Bio-One. Molecular Device FLIPR, Agilent Bravo liquid workstation, and Countstar BioTech cell counter.
• (1) The cryopreserved cells were rapidly thawed in a water bath at 37° C., and the cells were resuspended in a plating medium. The cryopreservation solution was removed by centrifugation at 200×g. The pellet was resuspended in an appropriate amount of plating medium, 20 μL of cell suspension was counted using a cell counter, and the cell density was diluted to 1×10^6 cells/mL. • (2) 20 μL of cell suspension was added to a polylysine-coated 384-well plate (2×10^4 cells/well). • (3) The cell plate was incubated in a 37° C./5% CO2 incubator for 16-20 h.
• (1) The cell plate was taken out from the incubator and centrifuged at 100×g to remove the medium. 20 μL of experimental buffer was added, and then 20 μL of 2× fluorescent probe solution was added. […] The cell plate and agonist positive compound plate were placed into the FLIPR instrument, the detection program was run, 10 μL of the diluted compound was transferred from the agonist compound plate to the cell plate, and the fluorescence signal was read. […] The cell plate and test compound plate were placed in the FLIPR instrument, the detection program was run, and 10 μL of the diluted compound was transferred from the test compound plate to the cell plate. […] The test compound plate was then taken out, and the agonist positive compound plate with 6×EC50 concentration was placed.
Inhibition rate (Inhibition %)=(negative control reading value−compound reading value)/(negative control reading value−positive control reading value)×100%

D2L receptor = biological target: T3, D2L receptor (Homo sapiens, UniProt P14416); test: D2L receptor cAMP agonist test; assay type: cell-based; conditions: HEK293 cell strain stably expressing D2L receptor; for EC50: cAMP, forskolin 0.5 μM; for D2L Max Act %: positive control dopamine 1 μM
T3 construct: expressed in transfected cells
T3 sequence (P14416 whole entry): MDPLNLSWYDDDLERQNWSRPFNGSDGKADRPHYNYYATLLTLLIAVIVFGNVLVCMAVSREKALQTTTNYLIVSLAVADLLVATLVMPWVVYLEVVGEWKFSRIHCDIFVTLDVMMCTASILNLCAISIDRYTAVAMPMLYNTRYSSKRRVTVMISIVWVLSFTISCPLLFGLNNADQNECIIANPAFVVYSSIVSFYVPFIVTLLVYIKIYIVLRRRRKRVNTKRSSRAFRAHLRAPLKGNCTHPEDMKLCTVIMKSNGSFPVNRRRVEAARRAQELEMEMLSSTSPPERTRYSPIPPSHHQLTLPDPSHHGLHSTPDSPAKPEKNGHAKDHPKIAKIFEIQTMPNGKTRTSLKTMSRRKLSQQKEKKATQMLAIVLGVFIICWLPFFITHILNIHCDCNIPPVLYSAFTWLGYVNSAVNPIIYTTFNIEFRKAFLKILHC
Description: as §1, with “• cAMP” for “cAMP”, “D2L” for “D2S”
• (1) The cryopreserved cells were thawed in a water bath at 37° C., the cell suspension was resuspended in HBSS buffer, and the mixed solution was centrifuged at 750 rpm for 5 min to remove the medium. The pellet was resuspended in an appropriate amount of experimental buffer, and an appropriate amount of cell suspension was diluted to 0.4×10^6 cells/mL. • (2) 5 μL of cell suspension was added to a ProxiPlate-384 well plate (2×10^3 cells/well), and the plate was centrifuged at 1000 rpm for 1 min. • (3) Test compounds were serially diluted in an experimental buffer, and 5 μL of the mixed solution was transferred to the reaction plate with Bravo.

[1] = Pharmacokinetic test in mice; assay type: in vivo; conditions: oral intragastric, plasma
Description: Male ICR mice were administered orally intragastrically, the plasma concentrations of the compounds of the present invention were measured in the mice, the PK parameters were calculated, and the pharmacokinetic evaluation was performed on the compounds of the present invention.
• (1) Test samples: the compounds of the examples of the present invention, self-made. • (2) Test animals: ICR mice, SPF grade, male, Xuzhou Medical University. • (3) Main test instruments:
Drug preparation: according to the weight of the weighed drug, the preparation volume was calculated. 5% of DMSO was added firstly. After the drug was fully dissolved, 95% of 20% aqueous PB-cyclodextrin solution was then added, and the mixture was mixed well for later use.
Administration route: oral intragastric administration. Frequency and duration of administration: single administration.
ICR mice were stratified according to body weight and then randomly divided into groups of 9 mice each, and the mice were fasted overnight prior to the test. The mice were separately administered orally intragastrically. 50 μL of blood was collected from the fundus vein of the mouse at 0 h, 0.083 h, 0.25 h, 0.5 h, 1 h, 2 h, 4 h, 8 h, 12 h, and 24 h (3 time points for each mouse) to a sample tube containing heparin sodium as an anticoagulant, and the tube was placed in wet ice and centrifuged at 4000 r·min^−1 for 10 min. The plasma was separated, and cryopreserved in a refrigerator at −80° C. for testing.
The concentrations of plasma samples were measured by high performance liquid chromatography-tandem mass spectrometry (LC-MS/MS). The retention times of the compounds and internal standard, chromatogram acquisitions, and integrals of chromatograms were processed using the software Analyst (AB SCIEX), and the data statistics were processed using the software Watson LIMS (Thermo Fisher Scientific) or Analyst (AB SCIEX). The concentration of plasma was processed using a non-compartmental model of the pharmacokinetic software WinNonlin™ Version 6.3 (Pharsight, Mountain View, CA), and pharmacokinetic parameters were calculated by a linear log-trapezoidal method.

[2] = male ICR mice, single dose 5 mg/kg, 5 mg/kg
[3] = male, ICR, mouse, po, 5 mg/kg, single dose 5 mg/kg
[4] = male, ICR, mouse, po, 5 mg/kg, single dose 5 mg/kg, read-out: AUC(0-inf)
[5] = male, ICR, mouse, po, 5 mg/kg, single dose 5 mg/kg, read-out: Cmax

Row | SMILES | EC50 (D2S receptor) [nM] | D2S Max Act % (D2S receptor) [%] | EC50 (5-HT1A receptor) [nM] | 5-HT1A Max Act % (5-HT1A receptor) [%] | IC50 (5-HT2A receptor) [nM] | 5-HT2A Max Inh % (5-HT2A receptor) [%] | EC50 (D2L receptor) [nM] | D2L Max Act % (D2L receptor) [%] | AUC(0-inf) [1, 2] [ng·h/mL] | Cmax [1, 2] [ng/mL] | t1/2 [1, 2] [h] | half-life ([1]; male, ICR, mouse, po, 3 mg/kg, single dose 3 mg/kg) [h] | AUC(0-inf) ([1]; male, ICR, mouse, po, 3 mg/kg, single dose 3 mg/kg, read-out: AUC(0-inf)) [ng·h/mL] | Cmax ([1]; male, ICR, mouse, po, 3 mg/kg, single dose 3 mg/kg, read-out: Cmax) [ng/mL] | half-life [1, 3] [h] | AUC(0-inf) [1, 4] [ng·h/mL] | Cmax [1, 5] [ng/mL]
1 | O=C1Nc2cc(OCCCCN3CCN(c4cccc5c4CCO5)CC3)ccc2C2CC12 (single isomer, unassigned) [Example 45-P2] | 0.89 | 111.5 | 200 | 52.8 | 411 | 100.0 | 0.62 | 41.5 | 4083.7 | 660.0 | 3.0 |  |  |  |  |  | 
2 | O=C1Nc2cc(OCCCCN3CCN(c4cccc5sc(Cl)cc45)CC3)ccc2C2CC12 (centres unmarked) [Example 49, 5-(4-(4-(2-Chlorobenzo[b]thiophen-4-yl)piperazin-1-yl)butoxy)-1,1a,3,7b-tetrahydro-2H-cyclopropa[c]quinolin-2-one] | 0.99 | 112.6 | 128 | 80.7 | 7400 | 90.4 | 0.91 | 56.3 |  |  |  | 10.5 | 4780 | 420 |  |  | 
3 | O=C1Nc2cc(OCCCCN3CCN(c4cccc5sccc45)CC3)ccc2C2CC12 (single isomer, unassigned) [Example 42-P2] | 0.93 | 99.2 | 693 | 45.5 | 497 | 97.3 | 0.43 | 32.6 | 11157.8 | 1296.7 | 5.8 |  |  |  |  |  | 
4 | O=C1Nc2cc(OCCCCN3CCN(c4cccc5c4CC(F)(F)C5)CC3)ccc2C2CC12 (centres unmarked) [Example 46, 5-(4-(4-(2,2-Difluoro-2,3-dihydro-1H-inden-4-yl)piperazin-1-yl)butoxy)-1,1a,3,7b-tetrahydro-2H-cyclopropa[c]quinolin-2-one] | 0.93 | 114.3 | 354 | 62.6 | 2340 | 91.6 | 0.4 | 43.4 |  |  |  |  |  |  | 15.2 | 17700 | 1200
5 | O=C1Nc2cc(OCCCCN3CCN(c4cccc5c4CCO5)CC3)ccc2C2CC12 (single isomer, unassigned) [Example 45-P1] | 1.01 | 106.1 | 243 | 56.4 | 398 | 99.8 | 2.12 | 28.0 |  |  |  |  |  |  | 3.2 | 4770 | 774
6 | O=C1COc2ccc(OCCCCN3CCN(c4cccc(Cl)c4Cl)CC3)cc2N1 [RP5063, reference compound] |  |  | 1880 | 31.6 | 9130 | 67.6 |  |  |  |  |  |  |  |  | 3.8 | 1560 | 195
7 | O=C1CCc2ccc(OCCCCN3CCN(c4cccc(Cl)c4Cl)CC3)cc2N1 [Aripiprazole, reference compound] |  |  |  | 43.8 |  | 86.0 |  |  |  |  |  |  |  |  | 3.5 | 1040 | 180
8 | O=C1Nc2cc(OCCCCN3CCN(c4cccc5c4OCC5)CC3)ccc2C2CC12 (centres unmarked) [Example 44, 5-(4-(4-(2,3-Dihydrobenzofuran-7-yl)piperazin-1-yl)butoxy)-1,1a,3,7b-tetrahydro-2H-cyclopropa[c]quinolin-2-one] | 0.93 | 91.0 | 11.2 | 58.9 | 260 | 99.7 | 0.37 | 44.7 |  |  |  |  |  |  |  |  | 
9 | O=C1Nc2cc(OCCCCN3CCN(c4ccc(Cl)s4)CC3)ccc2C2CC12 (centres unmarked) [Example 51] | 0.76 | 111.1 | 73.4 | 79.4 | 2530 | 99.8 | 1.53 | 82.6 |  |  |  |  |  |  |  |  | 
